Experimental data: patent US10543189B2, “2-acetylnaphtho[2,3-b]furan -4,9-dione for use on treating cancer” (Boston Biomedical, Inc., priority 2013, dated 2020)
Values joined by “and” are separate entries in the source; they are usually repeats but may differ in a detail not shown here. Equal entries are not always repeated.

Legend:
[1] = Phase I dose escalation trial: safety, tolerability, adverse events; assay type: in vivo, human; details: Phase 1, dose escalated from 20 mg to 2000 mg/day
Description: The most common adverse events were: diarrhea, nausea, and fatigue. Grade 3 or greater events include: fatigue and diarrhea.

[2] = Pharmacokinetics when taken fasting, with milk or with food; assay type: in vivo, human; details: for Tmax: human, in vivo, oral
Protocol: In yet another suitable dosing regimen, Compound 1 was administered with a fluid, e.g., a milk or water, with empty stomach which improves pharmacokinetical exposure (Table 12). Counterintuitively, milk helped patients with gastrointestinal adverse effects.
In yet another suitable dosing regimen, Compound 1 was administered with food which delayed the Tmax (Table 13).

[3] = Safety of highly pure Compound 1 in animal experiments; assay type: in vivo; details: highly pure Compound 1, mice
Protocol: For example, FIG. 13 of WO 2011/116398 and WO 2011/116399 illustrates the toxicity observed with a composition with about 90% purity for Compound 1, while FIG. 14 of WO 2011/116398 and WO 2011/116399 illustrates that the highly pure compositions having about 95% or greater purity for Compound 1 are safe and effective. In a Phase 1 study, the dose of Compound 1 was escalated from 20 mg to 2000 mg/day, and a maximum tolerated dose (MTD) not reached. […] The clinical safety profile of the substantially pure compositions of Compound 1 is among the best for oncology drugs in history.

[4] = tested on: β-catenin; assay: β-catenin protein levels in cancer cell lines; assay type: cell-based; details: in vitro within cancer cell lines
Description: (§1) Understanding the clinical relevance of the cancer stemness markers and identifying their predictive response to the Compound of the Invention is used herein to assist clinical development by selecting patients that will most likely to derive clinical benefit. In some embodiments, the methods provided herein use one or more well-known cancer stemness marker(s), such as, for example, the expression of p-STAT3 and/or other cancer stem cell related proteins such as β-catenin and NANOG. All these proteins can be easily detected using any of a variety of art-recognized techniques. In some embodiments, the cancer sternness marker is detected with immunohistochemistry with antibodies. Using the archival tissue samples collected from the phase I trial with the Compound of the Invention, the patient response to the Compound of the Invention was analyzed based on biomarker status. […] A significant improvement in survival was detected for patients with nuclear β-Catenin localization compared with patients having β-catenin localized to the cell membrane, HR=0.043, p value <0.001. As further evidence, in an in vitro study screening a panel of cancer cells, the cell lines with nuclear β-Catenin show a lower IC50 for the Compound of the Invention. […] Thus, STAT3 activation is involved in nuclear β-catenin regulation. […]

[5] = tested on: cancer cells; assay: Antitumor activity of the compound in patient urine; assay type: cell-based; details: compound in patient urine tested against cancer cells
[6] = tested on: CD44^high cells (FaDu); assay: CD44high sphere growth; assay type: cell-based; details: FACS-isolated from FaDu, sphere culture, five days of treatment, FIG. 5
Protocol: CD44^high cells were isolated by FACS (FaDu) and were cultured in the absence of attachment and serum for 5 days to form primary spheres. Primary spheres were then dissociated in Accumax (eBioscience, San Diego, Calif.) to single cells, and were cultured as above for 72 hours before the addition of the indicated concentrations of therapeutic agents. After five days of treatment, representative sphere images were captured.
CD44^high cells were isolated by FACS (FaDu) and their growth was blocked by a Compound of the Invention (FIG. 5).

[7] = Phase I dose escalation trial: pharmacokinetic profile; assay type: in vivo, human
[8] = tested on: panel of cancer cells; assay: In vitro screening of a panel of cancer cells; assay type: cell-based
Description: as §1

[9] = human, plasma, oral, 20 mg, Total Daily Dose 20 (mg), qd, patient plasma

In the case of `CC(=O)c1cc2c(o1)C(=O)c1ccccc1C2=O` [Compound 1, 2-acetylnaphtho[2,3-b]furan-4,9-dione], the “maximum tolerated dose (MTD)” value [1] is reported as “not reached”, the Tmax ([2]; Patient 20, Fasting) is reported as 2 h and the Tmax ([2]; Patient 20, With Food) is reported as 8 h. It also gave a Tmax ([2]; Patient 20, With Milk) of 2 h, a Tmax ([2]; Patient 21, Fasting) of 6 h and a Tmax ([2]; Patient 21, With Food) of 6 h. It also gave a Tmax ([2]; Patient 21, With Milk) of 6 h, a Tmax ([2]; Patient 22, Fasting) of 8 h and a Tmax ([2]; Patient 22, With Food) of 10 h. The Tmax ([2]; Patient 22, With Milk) was 8 h, the Tmax ([2]; Patient 24, With Food) was 10 h and the Tmax ([2]; Patient 24, With Milk) was 6.3 h. For the same compound, the Tmax ([2]; Patient 27, With Food) was 6 h, the Tmax ([2]; Patient 27, With Milk) was 0.5 h and the Tmax ([2]; Patient 28, With Food) was 10 h. For the same compound, the Tmax ([2]; Patient 28, With Milk) was 6 h, the “AUC0-24hrs Fold Change” value ([2]; with Milk versus Fasting) was 1.56 and 1.55 and the “Cmax Fold Change” value ([2]; with Milk versus Fasting) was 1.52 and 1.13. The adverse effects [3] was “No signs of any adverse effects”, the β-catenin protein levels [4] was “reduced” and the “antitumor activity in patient urine” value [5] was “remained potent against cancer cells”. The “CD44^high cells growth” value [6] was “blocked”, the “clearance from the blood” value ([7]; 20 mg QD, humans) was “rapidly cleared from the blood” and the “concentration of the compound in urine of the patient” value ([7]; 20 mg daily administration) was “surprisingly high concentration”. For the same compound, the AUC [7, 9] was 2.7 µM·h, the Cmax [7, 9] was 490 nM and the AUC ([7]; human, plasma, oral, 40 mg, Total Daily Dose 40 (mg), qd, patient plasma) was 3.62 µM·h. The AUC ([7]; human, plasma, oral, 80 mg, Total Daily Dose 80 (mg), qd, patient plasma) was 13.3 µM·h and the “IC50 in cell lines with nuclear β-Catenin” value [8] was “lower IC50”.
